How the values were obtained:
Assay type in all cases: biochemical
IAPP [1] = biological target: T1, IAPP (Homo sapiens, UniProt P10997); experiment: Rate of fibril formation by Thioflavine T spectroscopy (Example 5); conditions: thioflavine T assay
T1 sequence (P10997 34-70 limits assumed): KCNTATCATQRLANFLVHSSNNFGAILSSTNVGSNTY
Experimental: Determination of the Rate of Fibril Formation by Thioflavine T Spectroscopy
This can be used as a sensitive assay for fibril formation under different conditions. This assay has been used in experiments to determine the effects of some candidate compounds on fibril formation.
Human IAPP was dissolved in 40% Trifuoroethanol and freeze dried into convenient sized aliquots. IAPP (1 mg/ml) was prepared immediately before the measurement by dissolving in 40% HFIP in water to maintain the peptide in alpha confirmation and soluble. A stock solution of Thioflavine T (2.5 mM) was prepared 7.9 mg in 10 ml Tris pH 7.0 and filtered (0.22 micron). Solutions were kept in dark until use. Fluorescence was examined at 440 nm excitation (slit 5 nm), and Emission at 482 nm (Slit 10 nm) with stirring. Twenty five microlitres of Th-T stock (final conc 62.5 μM) was added to peptide sample (8 μg/ml) and made up to 1 ml in the cuvette. The sample was stirred for 5 min before taking a reading. Measurements were made at an initial time points (5 mins from sample preparation) and at intervals over the next 4-6 h after overnight incubation at room temp with and without candidate compound (vi) and a compound known to accelerate fibril formation, polyvinylsulphonate.

IAPP [2] = biological target: T1, IAPP; experiment: Rate of amyloid fibril formation by Thioflavine T spectroscopy (Example 1); conditions: Thioflavine T fluorescence
Experimental: Determination of the Rate of Amyloid Fibril Formation by Thioflavine T Spectroscopy
Detection of ThT fluorescence can be used as a sensitive assay for amyloid fibril formation under different conditions. This assay has been used in experiments to determine the effects of compounds of the invention on amyloid fibril formation.
Human IAPP was dissolved in 40% trifluoroethanol and freeze-dried into conveniently-sized aliquots. IAPP was prepared immediately before the measurements by dissolving in 40% 1,1,1,3,3,3-hexafluoro-2-propanol (HFIP) in water to maintain the peptide in alpha helical conformation and soluble. A stock solution of ThT (2.5 mM) was prepared, 7.9 mg in 10 mL Tris-HCl pH 7.0 and filtered (0.22 μm). Solutions were kept in the dark until use. Fluorescence was examined at 440 nm excitation (slit 5 nm), and emission at 482 nm (slit 10 nm) with stirring. […] of ThT stock (final concentration 62.5 μM) was added to peptide sample and made up to 1 mL in the cuvette. The sample was stirred for 5 min. before taking a reading. Measurements were made at an initial time point (5 min. from sample preparation), at intervals over the next 4-6 h and after overnight incubation at room temperature.

IAPP fibrils = biological target: T2, IAPP fibrils (Homo sapiens, UniProt P10997); experiment: Morphological characteristics of IAPP fibrils by transmission electron microscopy (Example 10); conditions: incubated 48 h, compared with IAPP alone
T2 sequence (P10997 34-70 limits assumed): T1 sequence (P10997 34-70 limits assumed)
Experimental: Morphological Characteristics of IAPP Fibrils Formed in Mixtures with Candidate Compounds.
IAPP prepared as in Example 3 was incubated with candidate compounds for 48 h Samples were then examined by transmission electron microscopy for the presence of fibrils. […] Long and short unbranching fibrils were present.

IAPP [3] = biological target: T1, IAPP; experiment: Circular dichroism analysis of β-sheet conformation (Example 2); design: add 10 μL of 10 mg/mL IAPP stock solution (final 100 μg peptide); conditions: changes in ellipticity at 218 nm (β-sheet conformation); peptide:compound 1:10
Experimental: Circular dichroism analysis was conducted to confirm the activity of certain therapeutic compounds in preventing or inhibiting IAPP-associated fibril formation in accordance with the present disclosure by determining the presence or absence of β-sheet conformation.
The assay, a co-incubation procedure, examines the ability of a compound or substance to inhibit the assembly of amyloid fibrils, e.g., to test for the presence of the amyloidotic b-sheet conformation in the presence of soluble IAPP. Samples are run in the presence and absence (i.e., water alone) of buffering agent, which is done to determine if competitive effects are seen with the ionic buffer (usually phosphate).
Add components used at a molar ratio of 1:10 [peptide:compound]; add 10 μL of 10 mg/mL IAPP stock solution (final 100 μg peptide) to the aqueous solution containing compound to a final volume of 400 μl. The pH of the final assay solution is measured to ensure there is no fluctuation and the spectrum is accumulated using the parameters as shown above.
Add desired amount of compound to achieve a 1:10 molar ratio in 10 mM phosphate buffer, pH 7. Add 10 μL of 10 mg/mL IAPP stock solution (final peptide 100 μg) to the phosphate buffered solution containing the compound and bring to a final volume of 400 μL. The pH of the final assay solution is measured to ensure there is no fluctuation and the spectrum is accumulated using the parameters as shown above.
In both assays, a control sample is run with each test group. This control contains peptide only in water or buffer at a similar final volume of 400 μl. Spectra for the control are collected initially (first run) and at the end of the test (final run) to ensure that the peptide has not undergone extensive aggregation during the course of the assay. Spectra for the controls are used to compare with the measurements obtained with the treated samples.
Make fresh 1 mg/mL stock solution of IAPP in 10 mM phosphate buffer, pH 7. Add desired amount of compound to achieve a 1:10 molar ratio in 10 mM phosphate buffer, pH 7. Incubate for 3 days at room temperature. Make up to final volume of 400 μL with 10 mM phosphate buffer, pH 7. The pH of the final assay solution is measured to ensure there is no fluctuation and the spectrum is accumulated using the parameters as shown above. A similar control is run for comparative purposes.
Plots of the spectra (control and treated) are individually assembled and the changes in ellipticity at 218 nm are examined. This minimum is directly correlated with the amount of peptide in β-sheet conformation present in the sample. Changes in either a positive or negative direction are noted and a relative value (“active” or “not active”) assigned to the compound as a measure of activity.

Human IAPP (hIAPP) = biological target: T3, Human IAPP (hIAPP) (Homo sapiens, UniProt P10997); experiment: ELISA assay for quantitative determination of fibril formation (Example 4)
T3 construct: Human IAPP (hIAPP) was synthesised by solid state synthesis (Advanced Biotechnologies, UK); purchased Advanced Biotechnologies, UK; host or cells: chemical solid-phase synthesis
T3 sequence (P10997 34-70 limits assumed): T1 sequence (P10997 34-70 limits assumed)
Experimental: ELISA Assay for Quantitative Determination of Fibril Formation
Human IAPP (hIAPP) was synthesised by solid state synthesis (Advanced Biotechnologies, UK). Human IAPP forms fibrils immediately in aqueous media. Aliquots of IAPP in water (800 μg/ml) were stored frozen at −20° C. until use. These samples contain small numbers of fibrils visible with electron microscopy (em).
Two sets of samples containing IAPP (20 μM) with or without inhibitors (at a molar ratio of 10:1 with IAPP, (20 μM)) were prepared on day 1 in Tris buffer. One set was centrifuged, the supernatant removed and frozen immediately at −20° C. (Time zero time point). The other set was incubated overnight at room temp with shaking (time 24 h time point). On day 2 these samples were spun and supernatant removed to determine the proportion of non-fibrillar IAPP.
To assay IAPP in the supernatant both sets of samples were serially diluted in bicarbonate coating buffer, added to ELISA wells and incubated overnight. Plates were washed in phosphate buffer containing Tween (PBS/Tw)×3. Diluted antiserum raised against human IAPP was incubated on the plate for 90 minutes at 37° C. Following washing in PBS/Tw, alkaline phosphatase conjugated anti-rabbit antisera was incubated for 90 mins. Following washing in PBS/Tw, alkaline phosphate substrate was added and colour allowed to develop for 30 mins. Optical density was read at 405 nm.
Data from all samples was calculated to determine changes of IAPP concentration in the supernatant induced by the candidate substance immediately (i.e. at time zero) or after 24 h incubation. Data in FIG. 1 is expressed as the proportion of non-fibrillar IAPP in the supernatant of test samples compared to control at both time points.

## O=C(O)C(F)(F)C(F)(F)C(F)(F)C(=O)O [vi, Hexafluoroglutaric acid]
IAPP [1]
  time for which the reduced fluorescence level was stable: up to 15 hrs
IAPP [1]; compared with IAPP alone
  fluorescence units: reduced fluorescence below the level recorded for IAPP alone
IAPP [2]
  IAPP-associated fibril assembly: inhibit or prevent IAPP-associated fibril assembly
IAPP fibrils
  presence and morphology of fibrils: contained fewer fibrils which were apparently short and long and not aggregated
IAPP [3]
  Activity: Active
Human IAPP (hIAPP); IAPP 20 μM, inhibitor:IAPP molar ratio 10:1, compared to control
  proportion of non-fibrillar IAPP in the supernatant: increase the proportion of non-fibrillar IAPP in the supernatant
Human IAPP (hIAPP); time zero versus time 24 h
  time point at which the increase of non-fibrillar IAPP was greater: greater at time zero
